Consider 11 compounds from patent US12129258B2, “Diaryl macrocyclic compound and pharmaceutical composition, and use thereof” (PrimeGene (Beijing) Co., Ltd., priority 2018, dated 2024).

Like-named read-outs stand apart in the source and are kept apart here.

By Cmax is commonly meant the highest concentration seen after dosing. One may read the Tmax as the time at which the peak concentration occurs. By half-life is commonly meant how long it takes for the measured level to halve. For orientation: Kp means the ratio of the level in a tissue or fluid to that in plasma or blood.

Data set [1] addresses ROS1 (Homo sapiens (Human), UniProt P08922). Description: Mobility shift assay, ROS1 kinase. The format is biochemical. The following applies: ATP 26.7 μM. An excerpt: (§1) The operation is described as follows:
(§2) Conversion %_Sample: conversion rate of sample;

Data set [2] concerns the target TRKB (Homo sapiens (Human), UniProt Q16620). The data set is described as follows: Mobility shift assay, TRKB kinase. The following applies: read-out: TRKB IC50, ATP 71.2 μM.
Procedure: (§9) The inhibitory activity of compounds on TRKA, TRKB, TRKC and ROS1 kinase was analyzed with Mobility shift assay. The screening platform is MSA based microfluidic chip technology, which applies the basic concept of capillary electrophoresis to microfluidic environment. The substrate used in the experiment is a poly-peptide labeled with fluorescent. Under the catalysis of enzyme in the reaction system, the substrate is transformed into a product, with the charge changed accordingly. MSA technology could detect the substrate and the product with different charge separately.
(§10) The compound powder was dissolved in 100% DMSO (Sigma, Cat. D8418-1l) to prepare a 10 mM storage solution. […] The reaction was carried out at room temperature for 30 min/40 min/20 min/20 min respectively. After the reaction was terminated, the conversion rate was read by Caliper EZ Reader II.
(§11) Conversion %_Min: mean value of negative control, representing the conversion rate without enzyme activity;
(§12) Conversion %_Max: mean value of positive control, which represents the conversion rate reading without compound inhibition.
(§13) Taking the log value of concentration as X axis and the percentage inhibition rate as Y axis, the dose response curve was fitted by the analysis software GraphPad Prism 5, thus the IC50 value of each compound on enzyme activity inhibition was obtained.
In data set [3] the target is T1, TRKA (Homo sapiens (Human), UniProt P04629). The data set is described as follows: Mobility shift assay, TRKA kinase. It is filed as biochemical. The following applies: ATP 47.8 μM.
From the text: as §1, §2

The target in data set [4] is TRKC (Homo sapiens (Human), UniProt Q16288). Description: Mobility shift assay, TRKC kinase. The settings on record: read-out: TRKC IC50, ATP 44.4 μM.
Procedure: as §9, §10, §11, §12, §13
In data set [5] the target is T1, TRKA. The data set is described as follows: HTRF kinase activity assay, TRKA. It is filed as biochemical. The settings on record: 90 μM ATP. The protocol: The IC50 values of the compounds were calculated using XLFIT5 (IDBS) software.
(Time-resolved FRET reads energy transfer from a long-lived donor to a nearby acceptor.)

In data set [6] the test system is Ba/F3 LMNA-NTRK1-WT. The data set is described as follows: Cell proliferation inhibition (CellTiter-Glo), Ba/F3 LMNA-NTRK1-WT. The format is cell-based. The settings on record: Mus musculus, BaF3, 72 h, test batch marked *. An excerpt:
(§3) 4. Inhibitory Effect of Compounds on the Proliferation of TRK Fusion and Mutant Stable Cell Lines (IC50)
(§4) Six cell lines including Ba/F3 LMNA-NTRK1-WT, Ba/F3 LMNA-NTRK1-G595R, Ba/F3 ETV6-NTRK2-WT, Ba/F3 ETV6-NTRK2-G639R, Ba/F3 ETV6-NTRK2-G639R and Ba/F3 ETV6-NTRK3-G623R were used in this experiment.
(§5) The operation is described briefly as follows:
(§6) The cells in logarithmic growth phase were harvested to ensure that the cell viability was above 90%. […] Then each well containing the cells of the 96-well plate was added the compound solutions, 3 wells for each compound solution, and continued to incubate for another 72 hrs. Then CellTiter-Glo® kit (Promega, Cat #G7572) was used to do the detection. First, the CTG reagent was melted and the cell plate was balanced to room temperature. The same volume of CTG solution was added into each well and vibrated on the shaker for 5 minutes to lyse the cells. The cell plate was kept at room temperature for 20 minutes to stabilize the luminescent signal. […] Cell survival rate (%)=(1umdrug−1ummedium)/(1umcell−lummedium)×100%
On the technique in general: Cellular ATP, detected with luciferase, serves as a proxy for viable cell number.

Data set [7] relates to Ba/F3 ETV6-NTRK2-WT. The data set is described as follows: Cell proliferation inhibition (CellTiter-Glo), Ba/F3 ETV6-NTRK2-WT. It is filed as cell-based. The following applies: Mus musculus, BaF3, 72 h, read-out: IC50 proliferation Ba/F3 ETV6-NTRK2-WT. The protocol:
as §3
(§7) Six cell lines including Ba/F3 LMNA-NTRK1-WT, Ba/F3 LMNA-NTRK1-G595R, Ba/F3 ETV6-NTRK2-WT, Ba/F3 ETV6-NTRK2-G639R, Ba/F3 ETV6-NTRK2-G639R and Ba/F3 ETV6-NTRK3-G623R were used in this experiment. For the six cell lines, the maximum test concentration of the compound was 1 μM, 1 μM, 10 μM, […], 1 μM and 10 μM, were 3.16-fold gradient diluted to obtain 9 samples.
as §5
(§8) The cells in logarithmic growth phase were harvested to ensure that the cell viability was above 90%. 3000 cell/well were seeded in 96-well plate (Corning, Cat #3603). The cells were incubated overnight with 5% CO2, 95% humidity at 37° C. Then each well containing the cells of the 96-well plate was added the compound solutions, 3 wells for each compound solution, and continued to incubate for another 72 hrs. Then CellTiter-Glo® kit (Promega, Cat #G7572) was used to do the detection. First, the CTG reagent was melted and the cell plate was balanced to room temperature. The same volume of CTG solution was added into each well and vibrated on the shaker for 5 minutes to lyse the cells. The cell plate was kept at room temperature for 20 minutes to stabilize the luminescent signal. The luminescent value was collected by SpectraMax microplate detector (MD, 2104-0010A). […] Cell survival rate (%)=(1umdrug−1ummedium)/(1umcell−lummedium)×100%

For data set [8], the system named is Ba/F3 ETV6-NTRK3-WT. The data set is described as follows: Cell proliferation inhibition (CellTiter-Glo), Ba/F3 ETV6-NTRK3-WT. The format is cell-based. The following applies: Mus musculus, BaF3, 72 h, read-out: IC50 proliferation Ba/F3 ETV6-NTRK3-WT.
Data set [9] relates to Ba/F3 LMNA-NTRK1-G595R. Description: Cell proliferation inhibition (CellTiter-Glo), Ba/F3 LMNA-NTRK1-G595R. The following applies: Mus musculus, BaF3, 72 h, test batch marked *. The format is cell-based.
From the text: as §3, §4, §5, §6

Data set [10] relates to Ba/F3 ETV6-NTRK2-G639R. Description: Cell proliferation inhibition (CellTiter-Glo), Ba/F3 ETV6-NTRK2-G639R. It is filed as cell-based. The following applies: Mus musculus, BaF3, 72 h, read-out: IC50 proliferation Ba/F3 ETV6-NTRK2-G639R. The protocol: as §3, §7, §5, §8
Data set [11] can be described thus: Pharmacokinetic analysis in rats. The format is in vivo, Male SD rats. The settings on record: male, SD, plasma; rat, PO, 5 mg/kg. The protocol:
6. Pharmacokinetic Analysis
Male SD rats were grouped, each group having 3 rats. […] Animals were fasted overnight from 10 hours before administration to 4 hours after administration. Blood samples were collected at 0.25, 0.5, 1, 2, 4, 8 and 24 hours after administration in the oral group and at 0.083, 0.25, 0.5, 1, 2, 4, 8 and 24 hours after injection in the intravenous group. After isoflurane anesthesia, 0.3 ml whole blood collected through the fundus vein plexus was put into the heparin anticoagulant tube. The sample was centrifuged at 4° C. at 4000 rpm for 5 min. The plasma was transferred into the centrifuge tube and stored at −80° C. until analysis. The extract from the plasma extracted by protein precipitation was analyzed by LC/MS/MS.

In data set [12] the test system is Ba/F3 LMNA-NTRK3-G623R. Description: Cell proliferation inhibition (CellTiter-Glo), Ba/F3 LMNA-NTRK3-G623R. It is filed as cell-based. The following applies: Mus musculus, BaF3, 72 h, read-out: IC50 proliferation Ba/F3 LMNA-NTRK3-G623R.
Data set [13] can be described thus: Blood-to-brain distribution in rats. The format is in vivo. The settings on record: male, SD, rat, 10 mg/kg single oral gavage. The protocol:
7. Blood-to-Brain Distribution
Male SD rats were grouped, each group having 12 rats. Each group was given the compound of Examples (10 mg/kg) by single oral gavage. The animals were fasted overnight from 10 hours before administration to 4 hours after administration. The rats were killed at 0.5, 1, 4 and 12 hours after administration, and blood and brain tissues were collected. The samples were centrifuged at 4000 rpm at 4° C. for 5 min and plasma was transferred into the centrifuge tube and stored at −80° C. until analysis. The extract from the plasma extracted by protein precipitation was analyzed by LC/MS/MS.

Sequence of TRKB (Q16620 32-822): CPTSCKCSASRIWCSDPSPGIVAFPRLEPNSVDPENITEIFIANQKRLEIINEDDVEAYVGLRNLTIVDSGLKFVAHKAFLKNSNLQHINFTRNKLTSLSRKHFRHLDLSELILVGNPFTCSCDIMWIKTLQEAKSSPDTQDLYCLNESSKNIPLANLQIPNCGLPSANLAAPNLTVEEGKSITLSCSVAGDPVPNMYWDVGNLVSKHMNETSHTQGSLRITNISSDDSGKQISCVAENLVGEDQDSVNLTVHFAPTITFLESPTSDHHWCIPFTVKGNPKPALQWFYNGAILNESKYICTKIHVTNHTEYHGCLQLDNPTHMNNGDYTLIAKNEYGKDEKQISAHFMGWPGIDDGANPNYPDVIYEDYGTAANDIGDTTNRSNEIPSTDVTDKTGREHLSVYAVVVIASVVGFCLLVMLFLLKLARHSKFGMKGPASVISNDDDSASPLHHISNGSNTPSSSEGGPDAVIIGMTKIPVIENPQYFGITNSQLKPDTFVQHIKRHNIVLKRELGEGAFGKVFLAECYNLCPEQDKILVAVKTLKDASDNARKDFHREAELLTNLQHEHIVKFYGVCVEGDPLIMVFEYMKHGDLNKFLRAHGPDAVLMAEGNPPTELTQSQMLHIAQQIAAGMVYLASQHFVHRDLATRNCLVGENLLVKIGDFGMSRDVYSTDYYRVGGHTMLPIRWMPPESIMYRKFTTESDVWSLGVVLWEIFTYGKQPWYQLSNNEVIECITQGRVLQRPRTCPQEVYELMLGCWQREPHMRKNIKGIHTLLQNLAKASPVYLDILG
Sequence of ROS1 (P08922 28-2347): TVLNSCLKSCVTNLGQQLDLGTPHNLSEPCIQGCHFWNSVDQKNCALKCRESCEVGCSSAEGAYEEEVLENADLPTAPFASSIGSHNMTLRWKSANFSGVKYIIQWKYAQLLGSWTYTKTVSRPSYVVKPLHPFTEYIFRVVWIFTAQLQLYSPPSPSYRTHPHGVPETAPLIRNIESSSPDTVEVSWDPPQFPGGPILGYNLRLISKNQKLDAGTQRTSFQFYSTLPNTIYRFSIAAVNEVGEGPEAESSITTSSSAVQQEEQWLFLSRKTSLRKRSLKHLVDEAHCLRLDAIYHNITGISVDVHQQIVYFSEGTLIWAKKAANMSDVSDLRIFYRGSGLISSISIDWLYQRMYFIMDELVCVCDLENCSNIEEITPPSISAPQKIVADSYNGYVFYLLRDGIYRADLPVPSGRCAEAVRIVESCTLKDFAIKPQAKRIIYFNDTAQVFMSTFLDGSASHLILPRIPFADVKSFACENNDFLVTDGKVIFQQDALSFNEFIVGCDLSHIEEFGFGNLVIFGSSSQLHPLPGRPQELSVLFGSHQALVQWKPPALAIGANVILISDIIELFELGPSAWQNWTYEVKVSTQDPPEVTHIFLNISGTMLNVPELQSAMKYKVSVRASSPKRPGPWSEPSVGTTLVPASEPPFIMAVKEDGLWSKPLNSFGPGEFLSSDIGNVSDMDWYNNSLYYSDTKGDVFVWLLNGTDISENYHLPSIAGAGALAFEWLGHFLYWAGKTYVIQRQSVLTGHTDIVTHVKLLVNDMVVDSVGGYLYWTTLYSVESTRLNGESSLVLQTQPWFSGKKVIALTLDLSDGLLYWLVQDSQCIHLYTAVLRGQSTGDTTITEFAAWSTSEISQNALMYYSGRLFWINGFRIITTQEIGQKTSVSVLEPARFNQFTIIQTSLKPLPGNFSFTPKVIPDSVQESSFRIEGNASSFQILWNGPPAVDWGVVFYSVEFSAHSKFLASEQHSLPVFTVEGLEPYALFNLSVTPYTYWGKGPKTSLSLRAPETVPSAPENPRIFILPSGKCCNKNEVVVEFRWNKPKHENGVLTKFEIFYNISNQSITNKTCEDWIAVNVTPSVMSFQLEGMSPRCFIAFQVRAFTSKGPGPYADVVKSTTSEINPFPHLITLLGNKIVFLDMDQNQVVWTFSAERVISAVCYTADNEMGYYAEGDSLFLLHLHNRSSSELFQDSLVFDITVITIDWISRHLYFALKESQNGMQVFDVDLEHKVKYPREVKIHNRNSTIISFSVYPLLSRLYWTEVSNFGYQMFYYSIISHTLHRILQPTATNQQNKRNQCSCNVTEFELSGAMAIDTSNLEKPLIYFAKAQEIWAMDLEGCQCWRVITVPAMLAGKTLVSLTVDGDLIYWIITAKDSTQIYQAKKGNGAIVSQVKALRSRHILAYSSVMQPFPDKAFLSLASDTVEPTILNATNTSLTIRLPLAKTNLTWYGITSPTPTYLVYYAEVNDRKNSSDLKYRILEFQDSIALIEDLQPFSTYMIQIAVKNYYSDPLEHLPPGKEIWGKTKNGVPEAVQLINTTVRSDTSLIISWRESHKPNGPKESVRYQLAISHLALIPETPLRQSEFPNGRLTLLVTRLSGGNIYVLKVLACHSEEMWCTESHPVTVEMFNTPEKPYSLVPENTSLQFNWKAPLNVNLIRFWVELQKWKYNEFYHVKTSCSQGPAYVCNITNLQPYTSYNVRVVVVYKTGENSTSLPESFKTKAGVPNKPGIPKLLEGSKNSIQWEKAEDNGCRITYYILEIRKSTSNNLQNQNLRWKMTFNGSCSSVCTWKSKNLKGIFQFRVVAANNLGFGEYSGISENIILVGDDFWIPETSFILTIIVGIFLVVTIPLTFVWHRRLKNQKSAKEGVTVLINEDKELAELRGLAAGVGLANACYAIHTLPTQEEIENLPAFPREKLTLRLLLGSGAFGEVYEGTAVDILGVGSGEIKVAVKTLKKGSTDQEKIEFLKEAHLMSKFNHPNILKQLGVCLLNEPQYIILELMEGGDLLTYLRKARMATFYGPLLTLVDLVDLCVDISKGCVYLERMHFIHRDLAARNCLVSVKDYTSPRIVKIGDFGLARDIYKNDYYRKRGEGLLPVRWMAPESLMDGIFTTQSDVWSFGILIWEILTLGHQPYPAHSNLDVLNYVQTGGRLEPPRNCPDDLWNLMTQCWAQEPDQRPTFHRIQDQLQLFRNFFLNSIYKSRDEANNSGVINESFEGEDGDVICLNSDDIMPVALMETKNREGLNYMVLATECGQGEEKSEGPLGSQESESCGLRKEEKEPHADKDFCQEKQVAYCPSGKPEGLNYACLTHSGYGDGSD
T1 sequence (P04629 33-796): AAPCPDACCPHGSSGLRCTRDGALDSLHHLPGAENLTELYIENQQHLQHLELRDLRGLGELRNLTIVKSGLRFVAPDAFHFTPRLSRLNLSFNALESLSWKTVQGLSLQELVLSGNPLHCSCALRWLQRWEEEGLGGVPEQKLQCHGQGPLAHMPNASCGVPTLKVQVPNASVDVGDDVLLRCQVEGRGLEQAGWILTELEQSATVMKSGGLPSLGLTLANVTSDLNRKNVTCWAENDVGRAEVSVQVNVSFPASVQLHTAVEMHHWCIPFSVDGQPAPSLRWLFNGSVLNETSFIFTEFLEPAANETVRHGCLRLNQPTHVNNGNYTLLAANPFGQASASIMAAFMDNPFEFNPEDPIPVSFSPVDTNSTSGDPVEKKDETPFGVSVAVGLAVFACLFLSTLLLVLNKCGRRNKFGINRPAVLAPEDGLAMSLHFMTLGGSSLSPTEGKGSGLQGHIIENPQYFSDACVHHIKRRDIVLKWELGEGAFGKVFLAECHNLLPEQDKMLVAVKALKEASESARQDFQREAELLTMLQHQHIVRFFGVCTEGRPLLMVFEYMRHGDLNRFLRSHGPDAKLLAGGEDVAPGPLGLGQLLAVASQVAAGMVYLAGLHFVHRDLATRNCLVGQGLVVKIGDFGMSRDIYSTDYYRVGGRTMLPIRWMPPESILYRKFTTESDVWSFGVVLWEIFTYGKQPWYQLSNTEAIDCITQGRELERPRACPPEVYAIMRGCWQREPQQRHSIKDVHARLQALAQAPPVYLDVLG
Sequence of TRKC (Q16288 other isoform, or with tags, fused parts or gaps isoform Q16288-3): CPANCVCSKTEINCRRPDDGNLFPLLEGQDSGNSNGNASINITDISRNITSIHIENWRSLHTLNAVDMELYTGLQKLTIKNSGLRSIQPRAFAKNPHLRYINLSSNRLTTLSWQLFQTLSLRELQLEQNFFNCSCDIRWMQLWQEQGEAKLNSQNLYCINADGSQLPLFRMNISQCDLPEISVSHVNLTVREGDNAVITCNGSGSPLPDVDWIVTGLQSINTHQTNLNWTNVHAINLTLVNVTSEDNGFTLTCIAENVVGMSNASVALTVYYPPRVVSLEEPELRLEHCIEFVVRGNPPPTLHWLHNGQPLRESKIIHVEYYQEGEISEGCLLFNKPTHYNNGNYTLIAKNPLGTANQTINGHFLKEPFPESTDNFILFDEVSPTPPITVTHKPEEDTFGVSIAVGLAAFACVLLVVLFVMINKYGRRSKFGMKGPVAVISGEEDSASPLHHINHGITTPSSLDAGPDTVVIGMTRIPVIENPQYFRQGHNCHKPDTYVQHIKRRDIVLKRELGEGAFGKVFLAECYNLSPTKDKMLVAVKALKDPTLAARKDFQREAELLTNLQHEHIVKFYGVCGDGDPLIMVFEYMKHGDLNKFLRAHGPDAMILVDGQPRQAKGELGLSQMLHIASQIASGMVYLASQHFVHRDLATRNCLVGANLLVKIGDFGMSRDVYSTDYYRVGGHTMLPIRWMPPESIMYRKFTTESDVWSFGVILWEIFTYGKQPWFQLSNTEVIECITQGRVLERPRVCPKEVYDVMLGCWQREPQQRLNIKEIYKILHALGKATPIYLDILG

On to `C[C@H]1COC(=O)c2cnn3ccc(nc23)N[C@H](C)c2cc(F)ccc2S1` [Example 9, (1^3E,1^4E,3R,6S)-4^5-fluoro-3,6-dimethyl-8-oxa-5-thia-2-aza-1(5,3)-pyrazolo[1,5-a]pyrimidina-4(1,2)-benzenacyclononaphan-9-one], for which the IC50 in data set [1] was determined as 0.54 nM; in data set [2], 0.86 nM; in data set [3], 0.59 nM; in [4], 0.76 nM.
The matching figures for `C[C@H]1Nc2ccn3ncc(c3n2)C(=O)OCCSc2ccc(F)cc21` [Example 25, (R,1^3E,1^4E)-4^5-fluoro-3-methyl-8-oxa-5-thia-2-aza-1(5,3)-pyrazolo[1,5-a]pyrimidina-4(1,2)-benzenacyclononaphan-9-one]: 1.2 nM, 1.6 nM, 1.1 nM and 1.1 nM.
The matching figures for `C[C@@H]1COc2ccc(F)cc2[C@@H](C)Nc2ccn3ncc(c3n2)C(=O)O1` [Example 6, (1^3E,1^4E,3R,7R)-4^5-fluoro-3,7-dimethyl-5,8-dioxa-2-aza-1(5,3)-pyrazolo[1,5-a]pyrimidina-4(1,2)-benzenacyclononaphan-9-one]: 0.78 nM, 1.2 nM, 0.75 nM and 1.2 nM.
Take `C[C@H]1Oc2cc(cnc2N)-c2c(nn(C)c2C#N)CN(C)C(=O)c2ccc(F)cc21` [Lorlatinib]: the IC50 in data set [5] was 6.2 nM.
As for `C[C@@H]1c2cc(F)ccc2OCCOC(=O)c2cnn3ccc(nc23)N1C` [Example 23, (R,1^3E,1^4E)-4^5-fluoro-2,3-dimethyl-5,8-dioxa-2-aza-1(5,3)-pyrazolo[1,5-a]pyrimidina-4(1,2)-benzenacyclononaphan-9-one], the IC50 in data set [1] was 4.8 nM; in data set [2], 0.48 nM; in data set [3], 0.39 nM; in [4] it was 0.63 nM.
The matching figures for `C[C@H]1Nc2ccn3ncc(c3n2)C(=O)OCCOc2ccc(F)cc21` [Example 13, (R,1^3E,1^4E)-4^5-fluoro-3-methyl-5,8-dioxa-2-aza-1(5,3)-pyrazolo[1,5-a]pyrimidina-4(1,2)-benzenacyclononaphan-9-one]: 1.9 nM, 0.9 nM, 0.62 nM and 0.73 nM.
For the compound `O=C(Nc1cnn2ccc(N3CCC[C@@H]3c3cc(F)ccc3F)nc12)N1CC[C@H](O)C1` [LOXO-101, reference compound], the IC50 in data set [6] is 47.4 nM; in [7] (72 hrs, test batch marked *) it was 75.3 nM; in data set [8] (72 hrs, test batch marked *), 6.8 nM; in data set [9] it was 2170 nM; in data set [10] (72 hrs, test batch marked *) it was 8180 nM.
On to `C[C@H]1Nc2ccn3ncc(c3n2)C(=O)OCC(F)(F)Oc2ccc(F)cc21` [Example 24, (R,1^3E,1^4E)-4^5,6,6-trifluoro-3-methyl-5,8-dioxa-2-aza-1(5,3)-pyrazolo[1,5-a]pyrimidina-4(1,2)-benzenacyclononaphan-9-one], for which the IC50 in [1] was 0.29 nM; in data set [2], 0.6 nM; in data set [3], 0.56 nM; in [4], 0.75 nM.
Compound `Cc1cc(Nc2ncc(Cl)c(Nc3ccccc3S(=O)(=O)C(C)C)n2)c(OC(C)C)cc1C1CCNCC1` [Ceritinib] registered an IC50 in data set [5] of 182 nM.
The same measure, in the same setting: under `CCc1cc2c(cc1N1CCC(N3CCOCC3)CC1)C(C)(C)c1[nH]c3cc(C#N)ccc3c1C2=O` [Alectinib] stands 60.4 nM.
Turning to `C[C@H]1CNC(=O)c2cnn3ccc(nc23)N[C@H](C)c2cc(F)ccc2O1` [TPX-0005, reference compound], the AUC(0-inf) in [11] was found to be 2950 ng·h/mL; in data set [13] (brain, read-out: AUC0-inf Brain), 2.35 µM·h; in data set [13] (plasma, read-out: AUC0-inf Plasma), 13.9 µM·h. The compound further registered a Cmax in [11] of 503 ng/mL. Besides, the Tmax in data set [11] came out at 1.33 h. Moreover, the half-life in [11] was 3.55 h. The IC50 in data set [7] is 2.5 nM; in [8], 0.8 nM; in data set [10] it was 86.6 nM; in data set [12], 9 nM. Further, in data set [13] (brain/plasma, AUC0-inf ratio), the Kp amounted to 0.17.
